Data as given in patent publication US20180118801A1, “COMPOSITIONS AND METHODS FOR DIAGNOSING AND TREATING AUTOIMMUNE DISEASES” (THE REGENTS OF THE UNIVERSITY OF COLORADO, a body corporate, priority 2015, published 2018).
Entries after “also recorded” stand apart in the source; their conditions may differ.

Key:
Experiment in all cases: T cell antigen assay, IFN-gamma ELISA response of T cell clone
Format in all cases: cell-based, NOD mouse
T cell clone BDC-9.3 = settings: for T cell recognition/activation by HIP sequence (IFN-gamma response): BDC-9.3, synthetic HIP library screen (FIG. 2E); for IFN-gamma T cell response to peptides: BDC-9.3, exemplifying the IAPP-reactive clones, synthetic peptides, FIG. 4B
Protocol: (§1) The antigenicity of biochemical fractions, peptides, or reaction mixtures was assessed through the IFN-y responses of T-cell clones. In 96-well microtiter plates, assay cultures contained 2×10^4 responder T cells, 2.5×10^4 NOD peritoneal exudate cells as antigen-presenting cells, and -cell antigen. ELISA (BD Biosciences) was used to determine IFN-gamma production by the responder T cells. Aliquots of cell extracts (β-Mem) were used as positive controls throughout the experiments. Test wells contained biochemical fractions, peptides, or reaction mixtures. Synthetic peptides (>95%) were obtained from CHI Scientific.
(§2) For the synthesis of a HIP peptide through chemical crosslinking of an N-terminally acetylated “left peptide” and an unmodified “right peptide”, a two-step crosslinking procedure was adopted. To ensure water solubility of peptides, “left peptides” (>85%, CHI-Scientific) were N-terminally extended and “right peptides” (>85%, CHI-Scientific) were C-terminally extended through the addition of two arginine residues separated by an alanine residue from the core amino acid sequences. A total of 10 μl “left peptide” (10 mM: SEQ ID NO: 177 Acetyl-RRAHLVEAL. SEQ ID NO: 178 Acetyl-RRALVEALY, SEQ ID NO: 179 Acetyl-RRAVEALYL, SEQ ID NO. 180 Acetyl-RRAGDLQTL, SEQ ID NO: 181 Acetyl-RRADLQTLA, SEQ ID NO: 182 Acetyl-RRALQTLAL, SEQ ID NO: 183 Acetyl-RRAQTLALE, or SEQ ID NO: 184 Acetyl-RRATLALEV) was added to 74.5 μl reaction buffer (20 mM MES, 150 mM NaCl) in a 1.5 ml eppendorf tube, followed by the addition of a carbodiimide, such as, for example, 1.5 μl freshly prepared 500 mM 1-Ethyl-3-[3-dimethylaminopropyl]carbodiimide hydrochloride (EDC) and 1.5 μl 1000 mM N-hydroxysuccinimide (NHS). After 15 min of incubation at room temperature, a reducing agent was added, for example, […] of DTT (1000 mM) were added to quench residual EDC. Following another 15 min of incubation at room temperature, […] of “right peptide” (10 mM: SEQ ID NO: 185 KCNTATARR, SEQ ID NO: 186 NAARDPARR, SEQ ID NO: 187 TPVRSGTARR, or SEQ ID NO: 188 WSRMDARR) were added. Reaction mixtures were incubated for 16 h at 37° C., prior to the direct addition of […] to the T cell assay plates (see for example U.S. Pat. No. 5,589,458). ELISA was used to measure IFN-gamma T cell responses to individual HIP reaction mixtures. For each T cell clone, the ELISA absorbance values to all peptides were averaged and the standard deviation was calculated. If the absorbance value toward an individual HIP was three times the standard deviation (3×sd) above the average signal, the response toward the peptide was classified as positive.

T cell clone BDC-6.9 = settings: for T cell recognition/activation by HIP sequence (IFN-gamma response): BDC-6.9 (same TCR as BDC-9.3); for IFN-gamma T cell response to peptides: BDC-6.9, synthetic peptides
Protocol: as §1, §2

[1] = tested on: CD4 T cell clone BDC-10.1; settings: synthetic HIP library screen (FIG. 2C)
Protocol: as §1, §2

[2] = tested on: CD4 T cell clone BDC-9.46; settings: synthetic HIP library screen (FIG. 2D)
Protocol: as §1, §2

CD4 T cell clone BDC-2.5 = settings: for T cell recognition/activation by HIP sequence (IFN-gamma response): BDC-2.5, synthetic HIP library screen, positive if ELISA absorbance 3×sd above average (FIG. 2B); for IFN-gamma T cell response to peptides: BDC-2.5, illustrating the WE14-reactive clones, synthetic peptides, FIG. 4A
Protocol: as §1, §2

DLQTLALNAAR [Sequence 2]
T cell recognition/activation by HIP sequence (IFN-gamma response) (T cell clone BDC-9.3): recognized
T cell recognition/activation by HIP sequence (IFN-gamma response) (T cell clone BDC-6.9): recognized

DLQTLALWSRM [Sequence 1]
T cell recognition/activation by HIP sequence (IFN-gamma response) [1]: recognized
T cell recognition/activation by HIP sequence (IFN-gamma response) [2]: recognized
T cell recognition/activation by HIP sequence (IFN-gamma response) (CD4 T cell clone BDC-2.5): recognized

IAPP2-HIP: HIP spanning full-length Ins2 C-Peptide fragment ending in LQTLAL on the N-terminal side and the entire IAPP2 sequence on the C-terminal side (EVEDPQVAQLELGGGPGAGDLQTLALNAAGDPNRESLDFLLV)
IFN-gamma T cell response to peptides (T cell clone BDC-9.3): low nanomolar concentrations
IFN-gamma T cell response to peptides (T cell clone BDC-6.9): low nanomolar concentrations

IAPP2: IAPP propeptide 2, naturally occurring cleavage product found in secretory granules of β-cells (NAAGDPNRESLDFLLV)
IFN-gamma T cell response to peptides (T cell clone BDC-9.3): Neither BDC-9.3 nor BDC-6.9 recognize; also recorded: not responsive
IFN-gamma T cell response to peptides (T cell clone BDC-6.9): Neither BDC-9.3 nor BDC-6.9 recognize

LQTLALNAARD [SEQ ID NO: 197]
T cell recognition/activation by HIP sequence (IFN-gamma response) (T cell clone BDC-9.3): recognized
T cell recognition/activation by HIP sequence (IFN-gamma response) (T cell clone BDC-6.9): recognized

LQTLALWSRMD [SEQ ID NO: 199]
T cell recognition/activation by HIP sequence (IFN-gamma response) [1]: activate
T cell recognition/activation by HIP sequence (IFN-gamma response) [2]: activate
T cell recognition/activation by HIP sequence (IFN-gamma response) (CD4 T cell clone BDC-2.5): activate

WE14-HIP: HIP spanning full-length Ins2 C-Peptide fragment ending in LQTLAL on the N-terminal side and the entire WE14 sequence on the C-terminal side (EVEDPQVAQLELGGGPGAGDLQTLALWSRMDQLAKELTAE)
IFN-gamma T cell response to peptides (CD4 T cell clone BDC-2.5): low nanomolar concentrations

WE14: naturally occurring peptide cleavage product of chromogranin A (ChgA) (WSRMDQLAKELTAE)
IFN-gamma T cell response to peptides (CD4 T cell clone BDC-2.5): weakly antigenic; also recorded: poorly antigenic; also recorded: high concentrations

insulin 2 C-peptide fragment ending with the amino acid sequence SEQ ID NO: 192 DLQTLAL: insulin 2 C-peptide fragment ending with DLQTLAL (EVEDPQVAQLELGGGPGAGDLQTLAL)
IFN-gamma T cell response to peptides (T cell clone BDC-9.3): None of the clones respond
IFN-gamma T cell response to peptides (CD4 T cell clone BDC-2.5): None of the clones respond

insulin 2 C-peptide: full length mouse insulin 2 C-peptide (EVEDPQVAQLELGGGPGAGDLQTLALEVAQQ)
IFN-gamma T cell response to peptides (T cell clone BDC-9.3): None of the clones respond
IFN-gamma T cell response to peptides (CD4 T cell clone BDC-2.5): None of the clones respond
IFN-gamma T cell response to peptides (CD4 T cell clone BDC-2.5; listed as Ins2 C-Peptide): None of the clones respond
IFN-gamma T cell response to peptides (CD4 T cell clone BDC-2.5; listed as insulin C-peptide): none of the WE14-reactive T cell clones recognize
